US10633338B2, “Binding Function 3 (BF3) site compounds as therapeutics and methods for their use” (THE UNIVERSITY OF BRITISH COLUMBIA, priority 2014, dated 2020)
Like-named read-outs stand apart in the source and are kept apart here.

What was measured:
[1] = biological target: T1, androgen receptor (AR) (Homo sapiens, UniProt P10275, T878A); test: eGFP cellular AR transcription assay; format: cell-based
T1 construct: stably transfected eGFP-expressing LNCaP human prostate cancer cells (LN-ARR2PB-eGFP) containing an androgen responsive probasin-derived promoter; endogenous in cells; host or cells: LNCaP (LN-ARR2PB-eGFP)
T1 sequence (P10275 1-920 T878A): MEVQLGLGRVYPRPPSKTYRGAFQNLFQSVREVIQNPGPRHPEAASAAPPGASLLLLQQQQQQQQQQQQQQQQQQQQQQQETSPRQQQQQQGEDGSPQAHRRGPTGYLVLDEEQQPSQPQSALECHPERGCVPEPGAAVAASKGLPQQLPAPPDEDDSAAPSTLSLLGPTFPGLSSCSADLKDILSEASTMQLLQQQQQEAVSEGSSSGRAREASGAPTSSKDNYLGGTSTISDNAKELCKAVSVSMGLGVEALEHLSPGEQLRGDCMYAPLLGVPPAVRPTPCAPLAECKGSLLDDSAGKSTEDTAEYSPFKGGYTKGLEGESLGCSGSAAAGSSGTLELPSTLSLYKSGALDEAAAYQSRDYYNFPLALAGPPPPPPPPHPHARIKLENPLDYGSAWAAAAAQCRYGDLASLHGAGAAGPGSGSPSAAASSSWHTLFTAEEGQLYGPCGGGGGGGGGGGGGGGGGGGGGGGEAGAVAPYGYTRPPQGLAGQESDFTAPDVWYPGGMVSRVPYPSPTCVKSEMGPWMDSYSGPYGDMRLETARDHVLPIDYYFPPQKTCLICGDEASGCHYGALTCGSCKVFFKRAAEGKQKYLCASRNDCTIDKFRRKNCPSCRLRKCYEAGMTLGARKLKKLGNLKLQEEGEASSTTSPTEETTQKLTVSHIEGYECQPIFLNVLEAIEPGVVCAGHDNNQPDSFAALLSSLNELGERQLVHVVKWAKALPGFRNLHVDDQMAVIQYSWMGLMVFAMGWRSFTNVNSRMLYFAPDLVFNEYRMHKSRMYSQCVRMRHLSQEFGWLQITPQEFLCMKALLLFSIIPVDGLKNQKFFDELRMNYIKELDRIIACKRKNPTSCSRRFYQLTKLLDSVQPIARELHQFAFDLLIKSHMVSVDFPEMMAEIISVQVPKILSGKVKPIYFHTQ
Experimental: After 5 days, the cells were plated into a 96-well plate (35,000 cells/well) with 0.1 nM of the synthetic androgen R1881 and increasing concentrations (0-100 μM) of compound.
After 5 days, the cells were plated into a 96-well plate (35,000 cells/well) with 0.1 nM R1881 and increasing concentrations (0-100 μM) of compound.
In this assay, the expression of eGFP is under the control of an androgen responsive probasin-derived promoter and can quantify AR transcriptional activity.

[2] = test system: PSA; test: Prostate Surface Antigen (PSA) assay, PSA excreted into the media; format: cell-based, human; conditions: same plates as eGFP assay
Experimental: The evaluation of PSA excreted into the media was performed in parallel to the eGFP assay using the same plates (see above description). After the cells were incubated for 3 days 150 μl of the media was taken from each well, and added to 150 μl of PBS.

[3] = LN-ARR2PB-eGFP LNCaP cells, 0.1 nM R1881, 3 days, 0-100 μM compound, read-out: IC50 (eGFP)
[4] = Homo sapiens, 72 h, media after 3 days, read-out: IC50 (PSA)
[5] = LN-ARR2PBeGFP LNCaP cells, 0.1 nM R1881, 3 days incubation
[6] = PSA excreted into media, 3 days incubation
[7] = LN-ARR2PBeGFP LNCaP cells, 0.1 nM R1881, 3 days incubation, read-out: eGFP IC50
[8] = Homo sapiens, 72 h, PSA excreted into media, 3 days incubation, read-out: PSA IC50
[9] = LN-ARR2PB-eGFP LNCaP cells, 0.1 nM R1881, 3 days, 0-100 μM compound

c1ccc2nc(-c3c[nH]c4ccccc34)ccc2c1 [13 562] was tested, and the IC50 [1, 3] was 60 nM and the IC50 [2, 4] was 140 nM.
O=[N+]([O-])c1cccc2nc(-c3c[nH]c4c(F)cc(F)cc34)ccc12 [Compound 13670] was tested, and the “eGFP IC50” value [1, 5] was “Inactive” and the “PSA IC50” value [2, 6] was “Inactive”.
With Oc1cccc2c(C3Nc4ccccc4C34CCCCC4)c[nH]c12 (centres unmarked) [Compound 13552] the IC50 [1, 7] was 1130 nM and the IC50 [2, 8] was 1140 nM.
In the case of Cc1cc(-c2c[nH]c3c(C)c(F)ccc23)nc2ccccc12 [Compound 13659], the “eGFP IC50” value [1, 5] is reported as “Inactive” and the “PSA IC50” value [2, 6] is reported as “Inactive”.
Fc1ccc2c(-c3ccc4ccccc4n3)c[nH]c2c1Cl [Compound 13642] gave an IC50 [2, 8] of 25 nM.
In the case of O=[N+]([O-])c1cccc2nc(-c3c[nH]c4ccccc34)ccc12 [Compound 13689], the “eGFP IC50” value [1, 5] is reported as “Inactive” and the “PSA IC50” value [2, 6] is reported as “Inactive”.
For Cc1cccc2c(-c3ccc4c(Br)ccc(Br)c4n3)c[nH]c12 [13 679], the “IC50 (eGFP)” value [1, 9] was “IC50 (eGFP) = Inactive” and the “IC50 (PSA)” value ([2]; media after 3 days) was “IC50 (PSA) = Inactive”.
In the case of Cc1cccc2nc(-c3c[nH]c4c(C)c(F)ccc34)ccc12 [Compound 13616], the “eGFP IC50” value [1, 5] is reported as “Inactive” and the “PSA IC50” value [2, 6] is reported as “Inactive”.
Molecule COc1ccc2[nH]c(-c3c[nH]c4ccccc34)cc2c1 [Compound 13509] has an IC50 [1, 7] of 2600 nM and an IC50 [2, 8] of 3100 nM.
Cc1ccc(/N=N/c2c[nH]c3ccccc23)c(C)c1 [Compound 13423] gave an IC50 [1, 7] of 1100 nM and an IC50 [2, 8] of 1200 nM.
Fc1ccc(Cl)c2[nH]cc(-c3ccc4ccccc4n3)c12 [Compound 13639] showed an IC50 [1, 7] of 549 nM and an IC50 [2, 8] of 544 nM.
For Fc1cc(F)c2[nH]cc(-c3ccc4c(Cl)cccc4n3)c2c1F [Compound 13753], the IC50 [1, 7] was 160 nM and the IC50 [2, 8] was 98 nM.
FC(F)(F)c1ccc(-c2c[nH]c3ccccc23)cc1 [Compound 13743] gave an IC50 [1, 7] of 380 nM and an IC50 [2, 8] of 390 nM.
For COc1ccc2[nH]cc(C3Nc4ccccc4C3(C)C)c2c1 (centres unmarked) [13 536], the IC50 [1, 3] was 2200 nM and the IC50 [2, 4] was 2520 nM.
Molecule Cc1cccc2c(-c3cnc4ccccc4c3)c[nH]c12 [Compound 13654] has an IC50 ([2]; PSA excreted into media, 3 days incubation, read-out: PSA IC50) of 160 nM.
In the case of c1ccc2nc(-c3n[nH]c4ccccc34)ccc2c1 [Compound 13663], the “eGFP IC50” value [1, 5] is reported as “Inactive” and the “PSA IC50” value [2, 6] is reported as “Inactive”.
For Cc1cccc2c(-c3ccc4cccc(Cl)c4n3)c[nH]c12 [Compound 13593], the IC50 [2, 8] was 130 nM.
In the case of NC(=O)c1cccc2nc(-c3c[nH]c4c(F)cc(F)cc34)ccc12 [Compound 13747], the “eGFP IC50” value [1, 5] is reported as “Inactive” and the “PSA IC50” value [2, 6] is reported as “Inactive”.
With c1ccc2ncc(-c3c[nH]c4ccncc34)cc2c1 [Compound 13637] the “eGFP IC50” value [1, 5] was “Inactive” and the “PSA IC50” value [2, 6] was “Inactive”.
With Cc1cccc2c(-c3ccc4cnccc4c3)c[nH]c12 [Compound 13765] the “IC50 (eGFP)” value [1, 9] was “IC50 (eGFP) = inactive”, the “eGFP IC50” value [1, 5] was “Inactive” and the “PSA IC50” value [2, 6] was “Inactive”. For the same molecule, the “IC50 (PSA)” value ([2]; media after 3 days) was “IC50 (PSA) = inactive”.
In the case of COc1cccc2c(-c3cc(C)c4ccccc4n3)c[nH]c12 [13 554], the IC50 [1, 3] is reported as 600 nM and the IC50 [2, 4] is reported as 670 nM.
Work on Fc1cc(Cl)c2[nH]cc(-c3ccc4ccccc4n3)c2c1 [Compound 13624] yielded an IC50 [2, 8] of 42 nM.
With Cc1cccc2c(-c3ccc4c(F)cccc4n3)c[nH]c12 [Compound 13623] the “eGFP IC50” value [1, 5] was “Inactive” and the “PSA IC50” value [2, 6] was “Inactive”.
In the case of CNC(=O)c1cccc2nc(-c3c[nH]c4cc(F)c(F)cc34)ccc12 [Compound 13645], the IC50 [1, 7] is reported as 261 nM and the IC50 [2, 8] is reported as 247 nM.
In the case of c1ccc2[nH]c(-c3c[nH]c4ccccc34)cc2c1 [Compound 13127], the IC50 [1, 7] is reported as 2100 nM and the IC50 [2, 8] is reported as 110 nM.
With Brc1cccc2c(-c3ccc4ccccc4n3)c[nH]c12 [Compound 13621] the IC50 [1, 7] was 20 nM and the IC50 [2, 8] was 8 nM.
Cc1ccccc1CSc1c(C)[nH]c2ccccc12 [Compound 13222] was tested, and the IC50 [1, 7] was 950 nM and the IC50 [2, 8] was 740 nM.
Cc1ccc(C)c2c(-c3ccc4ccccc4n3)c[nH]c12 [Compound 13600] showed an IC50 [1, 7] of 1250 nM and an IC50 [2, 8] of 929 nM.
Brc1ccc2[nH]cc(-c3ccc4ccccc4n3)c2c1 [Compound 13683] gave an IC50 [1, 7] of 2600 nM and an IC50 [2, 8] of 1910 nM.
